Measurements published in patent US9809623B2, “α4β7 peptide monomer and dimer antagonists” (Protagonist Therapeutics, Inc., priority 2014, dated 2017).
Where two headings read alike, the source gives them in different places. Numbered stars: 1 amine (or outer) side, 2 acyl side, 3 side chain; on linkers, the order of the positions; unused ones are H or OH. Bridge positions count the residues as written; N and C are the ends. Square brackets hold non-standard residues; d marks the D form. Peptide text beside a SMILES is read from it. I, II: the chains in the order shown. Phe(4-tBu) = CC(C)(C)c1ccc(C[C@H](N)C(=O)O)cc1; Diglycolyl = O=C(COCC(=O)[*:2])[*:1]; NMeR = CN[C@@H](CCCNC(=N)N)C(=O)O; β3hE = N[C@@H](CCC(=O)O)CC(=O)O; NMeK = CN[C@@H](CCCCN)C(=O)O; Pen = CC(C)(S)[C@H](N)C(=O)O; dNMeK = CN[C@H](CCCCN)C(=O)O

What was measured:
α4β7 = α4β7 (Homo sapiens, UniProt P13612+P26010); assay: α4β7-MAdCAM Cell Adhesion Assay (RPMI 8866 human cells); format: cell-based; set-up: host or cells: RPMI 8866 human B lymphoblastoid cells
Sequence of α4β7 (P13612 34-1032): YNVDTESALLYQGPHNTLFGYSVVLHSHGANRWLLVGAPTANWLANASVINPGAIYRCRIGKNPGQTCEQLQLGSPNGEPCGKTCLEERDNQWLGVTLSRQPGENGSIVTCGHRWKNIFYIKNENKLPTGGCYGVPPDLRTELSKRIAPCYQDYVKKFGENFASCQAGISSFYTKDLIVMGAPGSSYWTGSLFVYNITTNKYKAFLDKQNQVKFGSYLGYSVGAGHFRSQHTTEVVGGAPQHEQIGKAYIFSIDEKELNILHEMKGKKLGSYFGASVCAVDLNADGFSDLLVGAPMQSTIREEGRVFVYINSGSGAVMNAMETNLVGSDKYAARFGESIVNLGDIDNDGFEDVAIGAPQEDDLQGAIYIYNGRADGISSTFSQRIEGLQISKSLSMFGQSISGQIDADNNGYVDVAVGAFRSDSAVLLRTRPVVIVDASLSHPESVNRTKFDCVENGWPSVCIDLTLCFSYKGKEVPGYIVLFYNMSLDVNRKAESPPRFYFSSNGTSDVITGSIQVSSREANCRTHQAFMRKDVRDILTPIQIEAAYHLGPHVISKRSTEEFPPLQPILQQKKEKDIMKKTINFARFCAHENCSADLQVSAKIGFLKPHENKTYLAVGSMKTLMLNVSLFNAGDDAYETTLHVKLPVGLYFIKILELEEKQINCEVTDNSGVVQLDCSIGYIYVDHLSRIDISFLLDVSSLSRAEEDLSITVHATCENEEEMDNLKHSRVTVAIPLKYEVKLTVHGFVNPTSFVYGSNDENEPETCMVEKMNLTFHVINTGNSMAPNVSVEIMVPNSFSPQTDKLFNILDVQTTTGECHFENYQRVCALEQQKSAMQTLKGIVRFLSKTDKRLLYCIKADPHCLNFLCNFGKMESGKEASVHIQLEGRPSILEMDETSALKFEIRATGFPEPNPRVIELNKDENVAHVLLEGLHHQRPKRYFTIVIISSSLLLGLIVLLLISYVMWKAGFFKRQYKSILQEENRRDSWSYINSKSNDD
Sequence of α4β7 (P26010 20-798): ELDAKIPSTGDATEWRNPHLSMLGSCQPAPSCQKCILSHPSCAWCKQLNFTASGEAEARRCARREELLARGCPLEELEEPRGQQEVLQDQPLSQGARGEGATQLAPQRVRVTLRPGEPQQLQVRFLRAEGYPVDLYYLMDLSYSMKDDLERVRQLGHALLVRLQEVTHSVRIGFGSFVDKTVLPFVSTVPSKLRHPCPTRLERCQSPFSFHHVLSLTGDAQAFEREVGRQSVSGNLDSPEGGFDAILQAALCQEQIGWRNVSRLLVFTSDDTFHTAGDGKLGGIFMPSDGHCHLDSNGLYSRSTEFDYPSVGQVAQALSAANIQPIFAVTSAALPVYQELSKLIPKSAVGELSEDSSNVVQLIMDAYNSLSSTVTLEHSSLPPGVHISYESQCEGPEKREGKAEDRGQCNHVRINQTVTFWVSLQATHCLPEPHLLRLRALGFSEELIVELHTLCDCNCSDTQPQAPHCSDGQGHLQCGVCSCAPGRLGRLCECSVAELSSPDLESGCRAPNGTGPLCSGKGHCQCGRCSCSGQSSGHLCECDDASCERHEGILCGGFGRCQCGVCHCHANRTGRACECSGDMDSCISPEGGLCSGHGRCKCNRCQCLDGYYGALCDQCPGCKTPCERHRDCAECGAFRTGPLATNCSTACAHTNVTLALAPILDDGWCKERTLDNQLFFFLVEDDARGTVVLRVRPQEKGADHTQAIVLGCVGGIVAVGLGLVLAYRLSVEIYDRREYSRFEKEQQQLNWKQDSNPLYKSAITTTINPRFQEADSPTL
How it was run: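 Washed RPMI 8866 cells (200,000/well) in DMEM with 0.1% BSA, 10 mM HEPES pH 7, 1 mM MnCl2 adhered to rh MAdCAM-1/Fc-coated wells with serially diluted peptides, 30-45 min at 37 °C. After three washes, bound cells quantified by MTT, A570, cell-free background subtracted for dose response.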

rh integrin α4β7 = target: T1, rh integrin α4β7 (Homo sapiens, UniProt P13612+P26010); assay: α4β7-MAdCAM Competition ELISA; format: binding
T1 construct: purchased R&D Systems 5397-A30
T1 sequence (P13612 34-977 limits assumed): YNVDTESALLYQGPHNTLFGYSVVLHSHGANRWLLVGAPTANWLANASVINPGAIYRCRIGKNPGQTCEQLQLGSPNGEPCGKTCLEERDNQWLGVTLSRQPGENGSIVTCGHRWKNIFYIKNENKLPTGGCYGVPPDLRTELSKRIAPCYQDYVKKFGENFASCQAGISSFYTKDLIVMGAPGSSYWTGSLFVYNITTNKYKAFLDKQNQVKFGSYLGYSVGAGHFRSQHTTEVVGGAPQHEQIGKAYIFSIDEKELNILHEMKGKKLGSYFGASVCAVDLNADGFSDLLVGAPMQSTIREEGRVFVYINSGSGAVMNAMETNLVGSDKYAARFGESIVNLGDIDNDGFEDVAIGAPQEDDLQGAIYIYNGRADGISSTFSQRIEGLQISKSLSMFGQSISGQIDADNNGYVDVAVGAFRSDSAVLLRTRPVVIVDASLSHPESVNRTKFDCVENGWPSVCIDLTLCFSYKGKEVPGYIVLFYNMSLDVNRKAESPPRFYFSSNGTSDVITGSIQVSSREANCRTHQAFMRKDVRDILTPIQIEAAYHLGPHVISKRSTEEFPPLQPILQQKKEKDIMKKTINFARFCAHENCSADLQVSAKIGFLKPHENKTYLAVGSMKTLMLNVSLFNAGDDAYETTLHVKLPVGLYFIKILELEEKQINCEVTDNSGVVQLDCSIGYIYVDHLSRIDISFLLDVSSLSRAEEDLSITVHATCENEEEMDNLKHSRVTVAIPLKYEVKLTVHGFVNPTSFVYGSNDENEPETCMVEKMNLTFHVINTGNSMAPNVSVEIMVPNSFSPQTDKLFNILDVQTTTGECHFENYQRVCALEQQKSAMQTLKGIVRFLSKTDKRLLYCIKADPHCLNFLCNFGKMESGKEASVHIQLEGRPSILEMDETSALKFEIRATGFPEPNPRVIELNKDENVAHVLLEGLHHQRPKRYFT
T1 sequence (P26010 20-723 limits assumed): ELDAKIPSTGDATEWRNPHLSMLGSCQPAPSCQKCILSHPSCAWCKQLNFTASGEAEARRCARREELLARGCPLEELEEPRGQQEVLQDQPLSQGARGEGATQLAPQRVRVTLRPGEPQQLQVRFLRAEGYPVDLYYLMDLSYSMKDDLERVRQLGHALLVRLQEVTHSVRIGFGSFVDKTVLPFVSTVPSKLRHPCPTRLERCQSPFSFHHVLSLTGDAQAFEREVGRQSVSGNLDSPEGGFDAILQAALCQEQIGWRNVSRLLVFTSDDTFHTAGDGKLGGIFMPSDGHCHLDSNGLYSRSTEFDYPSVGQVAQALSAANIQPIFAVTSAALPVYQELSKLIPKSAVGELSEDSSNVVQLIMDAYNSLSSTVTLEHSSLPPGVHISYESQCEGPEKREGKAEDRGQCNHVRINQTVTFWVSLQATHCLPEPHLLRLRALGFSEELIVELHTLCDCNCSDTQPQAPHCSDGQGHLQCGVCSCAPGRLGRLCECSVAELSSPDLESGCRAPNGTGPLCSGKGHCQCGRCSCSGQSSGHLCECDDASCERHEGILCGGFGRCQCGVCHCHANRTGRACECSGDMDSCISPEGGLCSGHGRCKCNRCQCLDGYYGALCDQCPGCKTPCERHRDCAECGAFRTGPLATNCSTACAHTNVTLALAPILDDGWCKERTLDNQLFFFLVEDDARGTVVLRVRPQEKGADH
How it was run: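 Recombinant human α4β7 was captured on nickel plates at 800 ng/well. Peptide in 3-fold serial dilution (final top 10 μM) competed with MAdCAM-1 (final 10 nM) for 1 h at room temperature in 50 mM Tris pH 7.6, 150 mM NaCl, 1 mM MnCl2 or MgCl2. Bound MAdCAM-1 was detected with anti-human IgG1-HRP/TMB at A450.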

[1] = Simulated Intestinal Fluid (SIF) Stability Assay; format: in vitro ADME, porcine; conditions: for half-life at 22 μM: pig
How it was run: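 Peptides (22 μM final) incubated at 37 °C in FASSIF (pH 6.5) with 1% porcine pancreatin; aliquots quenched at various times and analyzed by LC-MS/MS against internal standard. Half-life from first-order exponential decay fit of percent remaining.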

[2] = Table 3-B, Potency (α4β7), range classes, read-out: α4β7 cell (Hu) IC50
[3] = Table 3-B, Potency (α4β7), range classes, read-out: α4β7 ELISA IC50
[4] = simulated intestinal fluid (SIF) with 1% porcine pancreatin, pH 6.5, Table 3-B, > means experiment was stopped at that time and half life was not reached, read-out: Stabilty SIF t1/2
[5] = Table 4-B, read-out: Cell Adhesion α4β7 IC50
[6] = Table 4-B, read-out: ELISA α4β7 IC50
[7] = simulated intestinal fluid (SIF) with 1% porcine pancreatin, pH 6.5, Table 4-C, t1/2, > means assay stopped at that time, read-out: SIF (porcine) Min

Structure (SMILES)	IC50 (α4β7; [2]) [nM]	IC50 (rh integrin α4β7; [3]) [nM]	Stabilty SIF t1/2, in hr ([1]; Table 3-B, alone or in parentheses after >360) [h]	half-life at 22 μM ([1]; simulated intestinal fluid (SIF) with porcine pancreatin, pH 6.5, Table 3-B, > means experiment was stopped at that time and half life was not reached, read-out: Stabilty SIF t1/2) [h]	half-life at 22 μM ([1]; simulated intestinal fluid (SIF) with porcine pancreatin, pH 6.5, Table 3-B, alone or in parentheses after >360, read-out: Stabilty SIF t1/2, in hr (converted)) [h]	half-life at 22 μM [1, 4] [h]	IC50 (α4β7; [5]) [nM]	IC50 (rh integrin α4β7; [6]) [nM]	half-life at 22 μM [1, 7] [h]
CC(=O)N[C@@H]1C(=O)N(C)[C@@H](CCCNC(=N)N)C(=O)N[C@@H](CO)C(=O)N[C@@H](CC(=O)O)C(=O)N[C@@H]([C@@H](C)O)C(=O)N[C@@H](CC(C)C)C(=O)N[C@H](C(=O)N[C@@H](Cc2ccc(C(C)(C)C)cc2)C(=O)N[C@@H](CCC(=O)O)CC(=O)N[C@H](CCCCNC(=O)COCC(=O)NCCCC[C@@H](NC(=O)C[C@H](CCC(=O)O)NC(=O)[C@H](Cc2ccc(C(C)(C)C)cc2)NC(=O)[C@H]2NC(=O)[C@H](CC(C)C)NC(=O)[C@H]([C@@H](C)O)NC(=O)[C@H](CC(=O)O)NC(=O)[C@H](CO)NC(=O)[C@H](CCCNC(=N)N)N(C)C(=O)[C@@H](NC(C)=O)C(C)(C)SSC2(C)C)C(N)=O)C(N)=O)C(C)(C)SSC1(C)C [compound 132] (I: Ac-[Pen][NMeR]SDTL[Pen][Phe(4-tBu)][β3hE][dK]-NH2 / II: Ac-[Pen][NMeR]SDTL[Pen][Phe(4-tBu)][β3hE][dK]-NH2; disulfide I:1-I:7, II:1-II:7; linker I:10-II:10 via Diglycolyl)	< 10	< 10	11	> 6	10.7	–	–	–	–
CC(=O)N[C@@H]1C(=O)N(C)[C@@H](CCCNC(=N)N)C(=O)N[C@@H](CO)C(=O)N[C@@H](CC(=O)O)C(=O)N[C@@H]([C@@H](C)O)C(=O)N[C@@H](CC(C)C)C(=O)N[C@H](C(=O)N[C@@H](Cc2c[nH]c3ccccc23)C(=O)N[C@@H](CCC(=O)O)C(=O)N[C@H](CCCCNC(=O)COCC(=O)NCCCC[C@@H](NC(=O)[C@H](CCC(=O)O)NC(=O)[C@H](Cc2c[nH]c3ccccc23)NC(=O)[C@H]2NC(=O)[C@H](CC(C)C)NC(=O)[C@H]([C@@H](C)O)NC(=O)[C@H](CC(=O)O)NC(=O)[C@H](CO)NC(=O)[C@H](CCCNC(=N)N)N(C)C(=O)[C@@H](NC(C)=O)C(C)(C)SSC2(C)C)C(N)=O)C(N)=O)C(C)(C)SSC1(C)C [compound 67] (I: Ac-[Pen][NMeR]SDTL[Pen]WE[dK]-NH2 / II: Ac-[Pen][NMeR]SDTL[Pen]WE[dK]-NH2; disulfide I:1-I:7, II:1-II:7; linker I:10-II:10 via Diglycolyl)	< 10	< 10	–	–	–	2.02	–	–	–
CC(=O)N[C@@H]1C(=O)N(C)[C@@H](CCCNC(=N)N)C(=O)N[C@@H](CO)C(=O)N[C@@H](CC(=O)O)C(=O)N[C@@H]([C@@H](C)O)C(=O)N[C@@H](CC(C)C)C(=O)N[C@H](C(=O)N[C@@H](Cc2ccc(C(C)(C)C)cc2)C(=O)N[C@@H](CCC(=O)O)CC(=O)N(C)[C@@H](CCCCNC(=O)COCC(=O)NCCCC[C@@H](C(N)=O)N(C)C(=O)C[C@H](CCC(=O)O)NC(=O)[C@H](Cc2ccc(C(C)(C)C)cc2)NC(=O)[C@H]2NC(=O)[C@H](CC(C)C)NC(=O)[C@H]([C@@H](C)O)NC(=O)[C@H](CC(=O)O)NC(=O)[C@H](CO)NC(=O)[C@H](CCCNC(=N)N)N(C)C(=O)[C@@H](NC(C)=O)C(C)(C)SSC2(C)C)C(N)=O)C(C)(C)SSC1(C)C [compound 149] (I: Ac-[Pen][NMeR]SDTL[Pen][Phe(4-tBu)][β3hE][NMeK]-NH2 / II: Ac-[Pen][NMeR]SDTL[Pen][Phe(4-tBu)][β3hE][NMeK]-NH2; disulfide I:1-I:7, II:1-II:7; linker I:10-II:10 via Diglycolyl)	< 10	< 10	–	–	–	> 5	–	–	–
CC(=O)N[C@H]1CSSC(C)(C)[C@@H](C(=O)N[C@@H](CCC(=O)O)C(=O)N[C@H](CCCCNC(=O)COCC(=O)NCCCC[C@@H](NC(=O)[C@H](CCC(=O)O)NC(=O)[C@H]2NC(=O)[C@H](CC(C)C)NC(=O)[C@H]([C@@H](C)O)NC(=O)[C@H](CC(=O)O)NC(=O)[C@H](CO)NC(=O)[C@H](CCCNC(=N)N)N(C)C(=O)[C@@H](NC(C)=O)CSSC2(C)C)C(N)=O)C(N)=O)NC(=O)[C@H](CC(C)C)NC(=O)[C@H]([C@@H](C)O)NC(=O)[C@H](CC(=O)O)NC(=O)[C@H](CO)NC(=O)[C@H](CCCNC(=N)N)N(C)C1=O [compound 205, (Ac-C-N-Me-R-S-D-T-L-Pen-E-k-NH2)2-DIG] (I: Ac-C[NMeR]SDTL[Pen]E[dK]-NH2 / II: Ac-C[NMeR]SDTL[Pen]E[dK]-NH2; disulfide I:1-I:7, II:1-II:7 (inferred); linker I:9-II:9 via Diglycolyl (inferred))	–	–	–	–	–	–	26	2.4	> 6
CC(=O)N[C@@H]1C(=O)N(C)[C@@H](CCCNC(=N)N)C(=O)N[C@@H](CO)C(=O)N[C@@H](CC(=O)O)C(=O)N[C@@H]([C@@H](C)O)C(=O)N[C@@H](CC(C)C)C(=O)N[C@H](C(=O)N[C@@H](Cc2c[nH]c3ccccc23)C(=O)N[C@H](CCC(=O)O)C(=O)N[C@H](CCCCNC(=O)COCC(=O)NCCCC[C@@H](NC(=O)[C@@H](CCC(=O)O)NC(=O)[C@H](Cc2c[nH]c3ccccc23)NC(=O)[C@H]2NC(=O)[C@H](CC(C)C)NC(=O)[C@H]([C@@H](C)O)NC(=O)[C@H](CC(=O)O)NC(=O)[C@H](CO)NC(=O)[C@H](CCCNC(=N)N)N(C)C(=O)[C@@H](NC(C)=O)C(C)(C)SSC2(C)C)C(N)=O)C(N)=O)C(C)(C)SSC1(C)C [compound 211, (Ac-Pen-N-Me-R-S-D-T-L-Pen-W-e-k-NH2)2-DIG] (I: Ac-[Pen][NMeR]SDTL[Pen]W[dE][dK]-NH2 / II: Ac-[Pen][NMeR]SDTL[Pen]W[dE][dK]-NH2; disulfide I:1-I:7, II:1-II:7 (inferred); linker I:10-II:10 via Diglycolyl (inferred))	–	–	–	–	–	–	22	3	> 5
CC(=O)N[C@@H]1C(=O)N(C)[C@@H](CCCNC(=N)N)C(=O)N[C@@H](CO)C(=O)N[C@@H](CC(=O)O)C(=O)N[C@@H]([C@@H](C)O)C(=O)N[C@@H](CC(C)C)C(=O)N[C@H](C(=O)N[C@@H](Cc2c[nH]c3ccccc23)C(=O)N[C@H](CCC(=O)O)C(=O)N[C@H](CCCCNC(=O)COCC(=O)NCCCC[C@@H](NC(=O)[C@@H](CCC(=O)O)NC(=O)[C@H](Cc2c[nH]c3ccccc23)NC(=O)[C@H]2NC(=O)[C@H](CC(C)C)NC(=O)[C@H]([C@@H](C)O)NC(=O)[C@H](CC(=O)O)NC(=O)[C@H](CO)NC(=O)[C@H](CCCNC(=N)N)N(C)C(=O)[C@@H](NC(C)=O)C(C)(C)SSC2(C)C)C(=O)O)C(=O)O)C(C)(C)SSC1(C)C [compound 216, (Ac-Pen-N-Me-R-S-D-T-L-Pen-W-e-k-OH)2-DIG] (I: Ac-[Pen][NMeR]SDTL[Pen]W[dE][dK]-OH / II: Ac-[Pen][NMeR]SDTL[Pen]W[dE][dK]-OH; disulfide I:1-I:7, II:1-II:7 (inferred); linker I:10-II:10 via Diglycolyl (inferred))	–	–	–	–	–	–	4.2	2.8	> 3
CC(=O)N[C@@H]1C(=O)N(C)[C@@H](CCCNC(=N)N)C(=O)N[C@@H](CO)C(=O)N[C@@H](CC(=O)O)C(=O)N[C@@H]([C@@H](C)O)C(=O)N[C@@H](CC(C)C)C(=O)N[C@H](C(=O)N[C@@H](Cc2c[nH]c3ccccc23)C(=O)N[C@@H](CCC(=O)O)C(=O)N(C)[C@H](CCCCNC(=O)COCC(=O)NCCCC[C@H](C(N)=O)N(C)C(=O)[C@H](CCC(=O)O)NC(=O)[C@H](Cc2c[nH]c3ccccc23)NC(=O)[C@H]2NC(=O)[C@H](CC(C)C)NC(=O)[C@H]([C@@H](C)O)NC(=O)[C@H](CC(=O)O)NC(=O)[C@H](CO)NC(=O)[C@H](CCCNC(=N)N)N(C)C(=O)[C@@H](NC(C)=O)C(C)(C)SSC2(C)C)C(N)=O)C(C)(C)SSC1(C)C [compound 214, [Ac-Pen-(N-Me-Arg)-Ser-Asp-Thr-Leu-Pen-Trp-Glu-(N-Me-D-Lys)-NH2]2-DIG] (I: Ac-[Pen][NMeR]SDTL[Pen]WE[dNMeK]-NH2 / II: Ac-[Pen][NMeR]SDTL[Pen]WE[dNMeK]-NH2; disulfide I:1-I:7, II:1-II:7 (inferred); linker I:10-II:10 via Diglycolyl (inferred))	–	–	–	–	–	–	2.5	4.1	> 13.5
CC(=O)N[C@@H]1C(=O)N(C)[C@@H](CCCNC(=N)N)C(=O)N[C@@H](CO)C(=O)N[C@@H](CC(=O)O)C(=O)N[C@@H]([C@@H](C)O)C(=O)N[C@@H](CC(C)C)C(=O)N[C@H](C(=O)N[C@@H](Cc2c[nH]c3ccccc23)C(=O)N[C@H](CCCCNC(=O)COCC(=O)NCCCC[C@@H](NC(=O)[C@H](Cc2c[nH]c3ccccc23)NC(=O)[C@H]2NC(=O)[C@H](CC(C)C)NC(=O)[C@H]([C@@H](C)O)NC(=O)[C@H](CC(=O)O)NC(=O)[C@H](CO)NC(=O)[C@H](CCCNC(=N)N)N(C)C(=O)[C@@H](NC(C)=O)C(C)(C)SSC2(C)C)C(N)=O)C(N)=O)C(C)(C)SSC1(C)C [compound 209, (Ac-Pen-N-Me-R-S-D-T-L-Pen-W-k-NH2)2-DIG] (I: Ac-[Pen][NMeR]SDTL[Pen]W[dK]-NH2 / II: Ac-[Pen][NMeR]SDTL[Pen]W[dK]-NH2; disulfide I:1-I:7, II:1-II:7 (inferred); linker I:9-II:9 via Diglycolyl (inferred))	–	–	–	–	–	–	24	2.3	> 3
